Experimental data reported in PubChem BioAssay AID1996.
Values after ≈ are worked out from the molar mass of the structure shown.

Settings: buffer; pH 7.4; 200.0 µM

NC(=O)CC[C@H](NC(=O)c1ccc(F)cc1)C(=O)N1CCN(Cc2ccc3c(c2)OCO3)CC1 and O=C(NCCNC(=O)c1ccco1)c1ccc(F)cc1 cannot be ordered by solubility kinetic: greater than 70.6 µg/mL for the first, greater than 41.4 µg/mL for the second.

COC(=O)c1cccc(N2CCCC2=O)c1 and CC(C)(C)c1cc(C(=O)N2CCc3ccccc3C2)ccn1 cannot be ordered by solubility kinetic: greater than 32.9 µg/mL for the first, greater than 44.2 µg/mL for the second.

First: O=C(NC(=S)NCc1nc2ccccc2[nH]1)c1ccc(F)cc1
Second: Cc1cc(C(=O)NCc2cccc(Cl)c2)c2ccccc2n1
The solubility kinetic of the first is 8.5-fold higher: 45.3 µg/mL (≈ 138 µM) for the first, 5.3 µg/mL (≈ 17.1 µM) for the second.

Compared with Nc1c(Cl)ncnc1NCCc1ccc(O)cc1, Cc1ccc(CSc2nc(N)cc(=O)[nH]2)cc1 is 2.8-fold lower in solubility kinetic: 37.1 µg/mL (≈ 140 µM) for the first, 13.1 µg/mL (≈ 53 µM) for the second.

First: O=C(OCC(=O)N1CCOCC1)c1ccc(Cl)c(S(=O)(=O)N2CCc3ccccc32)c1
Second: Cc1cnc(C(=O)OCC(=O)Nc2cc(S(=O)(=O)N3CCOCC3)ccc2Cl)cn1
The solubility kinetic of the first is lower: 32.4 µg/mL (≈ 69.7 µM) for the first, greater than 68.2 µg/mL for the second.

Going from CN(CC(=O)NCc1cccnc1)S(=O)(=O)c1ccccc1 to Cc1cccc(NC(=O)CCCc2ccccc2)c1C, the solubility kinetic falls from greater than 47.9 µg/mL to less than 0.6 µg/mL.

Going from CCCCN(C1CCS(=O)(=O)C1)S(=O)(=O)c1ccc(C(C)C)cc1 (centres undefined) to Cc1ccc(C(=O)OCC(=O)NC2CCS(=O)(=O)C2)c(C)c1 (centres undefined), the solubility kinetic rises from 1.9 µg/mL (≈ 5.09 µM) to greater than 48.8 µg/mL.

Compared with CC(NC(=O)/C(C#N)=C/c1ccco1)c1ccccc1 (centres undefined), CC(NC(=O)C(C)N1C(=O)c2ccccc2C1=O)c1ccccc1 (centres undefined) is higher in solubility kinetic: 38.8 µg/mL (≈ 146 µM) for the first, greater than 48.4 µg/mL for the second.

Going from OC(C#CCCN1CCCCC1)(c1ccccc1)C1CCCCC1 (centres undefined) to OCCN1CCOCCOc2ccccc2OCCOCC1, the solubility kinetic rises from 25.1 µg/mL (≈ 77.1 µM) to greater than 46.7 µg/mL.

Going from O=C(N/N=C/c1cccs1)c1cccnc1 to CC(Oc1cccnc1[N+](=O)[O-])C(=O)Nc1ccc(Cl)cn1 (centres undefined), the solubility kinetic falls from greater than 34.7 µg/mL to 17 µg/mL (≈ 52.7 µM).

Going from CCc1ccccc1NCc1cc(=O)oc2cc(C)ccc12 to Cc1cccc(-c2cnn(-c3ccccc3)c2N)c1, the solubility kinetic rises from 0.7 µg/mL (≈ 2.39 µM) to greater than 37.4 µg/mL.

Going from C=C(C)COc1ccc(-c2ncncc2-c2ccc(Cl)cc2)c(O)c1 to COc1cc2c(cc1OC)C(c1ccc(Cl)cc1)=NCC2, the solubility kinetic rises from less than 0.4 µg/mL to 41.5 µg/mL (≈ 138 µM).

O=C(c1cc(C(=O)N2CCCC2)cc([N+](=O)[O-])c1)N1CCCC1 and Cc1cccc(C)c1NC(=O)COC(=O)[C@@H]1CCCN1C(=O)c1cccs1 cannot be ordered by solubility kinetic: greater than 47.6 µg/mL for the first, greater than 58 µg/mL for the second.

First: O=C(CNc1cccc(F)c1)N1CCc2ccccc2C1
Second: Cl.NCCC(=O)N1c2ccccc2Sc2ccc(Cl)cc21
The solubility kinetic of the first is 4-fold lower: 8.4 µg/mL (≈ 29.5 µM) for the first, 33.7 µg/mL for the second.

O=[N+]([O-])c1cccc(Oc2cnccn2)c1 and COc1cccc(Nc2ncc(C#N)c(N)n2)c1 are within 1.5-fold of each other in solubility kinetic: 31.8 µg/mL (≈ 146 µM) for the first, 31.9 µg/mL (≈ 132 µM) for the second.

Going from CCOC(=O)C(C)Oc1c(C(=O)OC)sc2ncccc12 (centres undefined) to COc1cccc(CNC(=O)Cn2nc(C)c([N+](=O)[O-])c2C)c1, the solubility kinetic rises from 38.2 µg/mL (≈ 123 µM) to greater than 47.7 µg/mL.

Going from C=CCSc1ncc(CO)n1Cc1ccccc1 to COC(=O)CCCN=C1SCCN1Cc1ccccc1, the solubility kinetic rises from 37.9 µg/mL (≈ 146 µM) to greater than 43.9 µg/mL.

COc1ccc(CC(=O)Nc2ccc(OC)nc2)cc1 and CCN(C(=S)NC(=O)Cc1ccc(OC)cc1)c1ccccc1 cannot be ordered by solubility kinetic: greater than 40.8 µg/mL for the first, 48.9 µg/mL (≈ 149 µM) for the second.

Compared with Cn1cccc1C(=O)OCC(=O)NC(=O)c1ccc(Cl)cc1, Cc1ccc(C(=O)NCC(=O)Nc2ccc(F)c(F)c2F)cc1 is 2.3-fold lower in solubility kinetic: 5.4 µg/mL (≈ 16.8 µM) for the first, 2.3 µg/mL (≈ 7.14 µM) for the second.

Compared with Cc1ccccc1Cn1cc(C)c(=O)[nH]c1=O, Cc1nc(Cc2ccc(OC(C)C)cc2)[nH]c(=O)c1CC(=O)O is higher in solubility kinetic: 29.5 µg/mL (≈ 128 µM) for the first, greater than 47.5 µg/mL for the second.

Br.Nc1nc2c(s1)CCc1ccccc1-2 and O=C(O)C1=C(Nc2ccccc2)OCC1=O cannot be ordered by solubility kinetic: 40.3 µg/mL for the first, greater than 32.9 µg/mL for the second.

First: CCOc1ccc(N2CC(C(=O)NCCc3ccc(F)cc3)CC2=O)cc1 (centres undefined)
Second: CCC(=O)Nc1ccc2c(c1)nc(CCNC(=O)c1ccco1)n2C
The solubility kinetic of the first is lower: 30.8 µg/mL (≈ 83.1 µM) for the first, greater than 51.1 µg/mL for the second.
